Measurements taken from article doi:10.1101/2024.08.19.608619, “Discovery of potent SARS-CoV-2 nsp3 macrodomain inhibitors uncovers lack of translation to cellular antiviral response” (bioRxiv, 2024).
≈ marks a conversion by molar mass, not a printed value. Where “and” joins values, the source holds several entries; their conditions need not be identical. Equal values may be shown once. Read-outs that look alike come from different tables or passages of the source.

Columns and labels:
[1] = system: SARS-CoV-2, isolate USA-WA1/2020; experiment: microbe, parasite or virus in culture; assay type: cell-based; conditions: HeLa-ACE2 SARS-CoV-2 antiviral effect without P-gp inhibitor; for perc_max_measured: maximum measured response of dose series; for perc_min_measured: minimum measured response of dose series; for EC50: read-out: ec50; for EC90: read-out: ec90
SARS-CoV-2 = experiment: Antiviral effect in iPSC-derived pneumocyte system; assay type: cell-based; conditions: iPSC pneumocytes SARS-CoV-2 antiviral effect; for perc_max_measured: maximum measured response of dose series; for perc_min_measured: minimum measured response of dose series
[2] = Hepatic microsomal stability, HLM; assay type: in vitro ADME, human; conditions: In vitro human liver microsomal stability; for perc_remaining_no_cofactor: no cofactor
[3] = Hepatic microsomal stability, MLM; assay type: in vitro ADME
iPSC pneumocytes = iPSC pneumocytes cytotoxicity; assay type: cell-based; conditions: for perc_max_measured: highest measured response of the dose series; for perc_min_measured: lowest measured response of the dose series
Source text: Supplement media-1.zip/Cytotoxicity.csv, table | column: cc10; cc50; perc_min_measured; perc_max_measured

HeLa-ACE2 cells = conditions: protocol HeLa-ACE2 cytotoxicity; for perc_max_measured: highest measured response of the dose series; for perc_min_measured: lowest measured response of the dose series
LogD = conditions: pH 7.4; In vitro LogD
in vitro [4] = experiment: in vitro; parameters: Cytotoxicity in iPSC-derived pneumocytes, CC50; conditions: human, ipsc-derived pneumocytes, read-out: 50.0
Source text: Finally, we consider the hypothesis that interferon response triggers ADP-ribosylation, thus profiling the compounds in enhanced and physiologically relevant interferon environments could reveal detectable antiviral effects. […] Furthermore, HeLa-ACE2 cells, and all cancerous cell lines, display defective innate immune response ([1]). As such, we also assess our compound in a primary-like iPSC-derived pneumocyte system (Figure 7C), showing likewise a lack of antiviral activity in this physiologically relevant innate immunity system.

in vitro [5] = conditions: human, hela-ace2 cells, 50.0
[6] = In vitro kinetic solubility; conditions: In vitro kinetic solubility, ph 7.4
[7] = Permeability Papp (AB) MDR1/MDCKII; conditions: for papp_a_to_b_mean: A to B
[8] = In vitro mouse liver microsomal stability
[9] = protocol iPSC pneumocytes cytotoxicity
[10] = In vitro MDR1-MDCKII permeability, mean
[11] = In vitro MDR1-MDCKII permeability, recovery A to B, mean
[12] = In vitro MDR1-MDCKII permeability, no inhibitor

Compound	perc_max_measured [1] [%]	perc_min_measured [1]	EC50 [1]	EC90 [1]	perc_max_measured (SARS-CoV-2)	perc_min_measured (SARS-CoV-2)	clint [2] [µL/min/mg]	perc_remaining [2] [%]	t_half [2] [min]	perc_remaining_no_cofactor [2] [%]	clint [3, 8] [µL/min/mg]	perc_remaining [3, 8] [%]	t_half [3, 8] [min]	CC50 (HeLa-ACE2 cells) [µM]	cc10 (HeLa-ACE2 cells) [µM]	perc_max_measured (HeLa-ACE2 cells) [%]	perc_min_measured (HeLa-ACE2 cells) [%]	logd (LogD)	CC50 at 24 h (in vitro [5]) [µM]	solubility_mean [6] [µM]	further results
CC(C)[C@@H](Nc1ncnc2[nH]c(-c3cnn(C)c3C#N)cc12)c1ccc2c(c1)OCCO2 (racemic) [ASAP-0008275]	109.522	3.811% and 0.0%	1.73 µM and 1.72 µM	4.31 µM and 4.23 µM	108.15% and 116.315%	1.229% and 8.563%	74.0	25.0	22.6	111.0	218.0	3.0	7.7	> 50	> 50.0	136.373	77.442	3.0	> 50	17 (≈ 7.3 µg/mL)	perc_remaining_no_cofactor ([3]; In vitro mouse liver microsomal stability; no cofactor): 97.0%; CC50 (iPSC pneumocytes; [9]): > 50 µM; cc10 (iPSC pneumocytes; [9]): 13.408 µM; perc_max_measured (iPSC pneumocytes; [9]): 110.873% and 99.023%; perc_min_measured (iPSC pneumocytes; [9]): 69.382% and 78.095%; CC50 (in vitro [4]; ASAP-0008327-001=ASAP-0008275-001): > 50 µM; papp_a_to_b_mean [7, 10]: 4.2 ×10⁻⁶ cm/s; perc_recovery_a_to_b_mean [7, 11]: 36.0%
CC(C)[C@@H](Nc1ncnc2[nH]c(-c3cnn(C)c3C#N)cc12)c1ccc2c(c1)S(=O)(=O)CCC2 (single isomer, unassigned) [ASAP-0011147]	114.163	4.545%	3.51 µM	13.2 µM	75.192%	0.111%	516.0	0.0	3.2	101.0	709.0	0.0	2.4	> 20	> 20.0	92.283	75.829	3.7	> 20	26 (≈ 12.4 µg/mL)	EC50 (SARS-CoV-2): 0.411 µM; EC90 (SARS-CoV-2): 13 µM; perc_remaining_no_cofactor ([3]; In vitro mouse liver microsomal stability, no cofactor): 106.0%; CC50 (iPSC pneumocytes): > 50 µM; cc10 (iPSC pneumocytes): > 50.0 µM; perc_max_measured (iPSC pneumocytes): 111.987%; perc_min_measured (iPSC pneumocytes): 95.623%; CC50 (in vitro [4]; ASAP-0008327-001=ASAP-0011147-001): > 50 µM; papp_a_to_b_mean [7, 10]: 1.82 ×10⁻⁶ cm/s; papp_a_to_b_mean [7, 12]: 0.087 ×10⁻⁶ cm/s; papp_b_to_a_mean ([7]; In vitro MDR1-MDCKII permeability, B to A, no inhibitor): 7.5 ×10⁻⁶ cm/s; efflux_ratio [7, 12]: 85.7; perc_recovery_a_to_b_mean [7, 11]: 54.6%; perc_recovery_a_to_b_mean ([7]; In vitro MDR1-MDCKII permeability, recovery A to B, no inhibitor): 82.5%; perc_recovery_b_to_a_mean ([7]; In vitro MDR1-MDCKII permeability, recovery B to A, no inhibitor): 96.5%; perc_recovery_a_to_b_inhibitor_mean ([7]; MDR1-MDCKII, recovery A to B, with inhibitor Verapamil): 63.2%; perc_recovery_b_to_a_inhibitor_mean ([7]; MDR1-MDCKII, recovery B to A, with inhibitor Verapamil): 72.3%
